Results: patent publication US20250092065A1, “2-(INDAZOL-5-YL)-6-(PIPERIDIN-4-YL)-1,7-NAPHTHYRIDINE DERIVATIVES AND RELATED COMPOUNDS AS MODULATORS FOR SPLICING NUCLEIC ACIDS AND FOR THE TREATMENT OF PROLIFERATIVE DISEASES” (REMIX THERAPEUTICS INC., priority 2022, published 2025)

What was measured:
[1] = test system: K562 cells; test: Cell Titer Glo 2.0 cell viability (toxicity) assay, K562; conditions: 500 cells/well, 72 hours
[2] = test system: Target C; test: HiBiT protein abundance assay, Target C (K562 HiBiT knock-in); type: cell-based, human; conditions: HiBiT knock-in K562 cells, 24 hours, top dose 10 μM
In short: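 K562 HiBiT knock-in cells (10000/well) were treated 24 h at 37° C with a 10-point 3-fold dilution series (top 10 μM final, ≤0.25% DMSO). HiBiT luminescence was read after lytic LgBiT detection. Percent response used unmodified K562 and DMSO-treated knock-in controls, and IC50 came from a four-parameter fit at 50% of untreated.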

Row | SMILES | IC50 [2] [nM] | Effect of Exemplary Compounds on Cell Viability, K562 [1]
1 | C[C@H]1C[C@H](c2ccc3nc(-c4cc5cn(C)nc5c(F)c4O)ccc3n2)CCN1 (single isomer, unassigned) [Compound 356] | < 100 | A (A represents <100 nM)
2 | Cc1c(O)c(-c2ccc3nc(N4CC[C@H](N[C@H]5C[C@H](F)C5)C4)ccc3n2)cc2cn(C)nc12 (single isomer, unassigned) [Compound 358] | < 100 | B (B represents 100-1000 nM)
3 | Cn1cc2cc(-c3ccc4nc(N5CC[C@@H](N)C5)ccc4n3)c(O)c(F)c2n1 (single isomer, unassigned) [Compound 362] | < 100 | A (A represents <100 nM)
4 | CN[C@@H]1CCN(c2ccc3nc(-c4cc5cn(C)nc5c(C)c4O)ncc3n2)C1 (single isomer, unassigned) [Compound 368] | 100 to 1000 | A (A represents <100 nM)
5 | CN[C@H]1CCN(c2ccc3nc(-c4cc5cn(C)nc5c(C)c4O)ncc3n2)C1 (single isomer, unassigned) [Compound 369] | 100 to 1000 | B (B represents 100-1000 nM)
6 | Cc1nc2c(F)c(O)c(-c3ccc4nc(N5CC[C@H](NC6(CF)CC6)C5)ccc4n3)cc2o1 (single isomer, unassigned) [Compound 373] | < 100 | A (A represents <100 nM)
7 | Cc1nc2c(C)c(O)c(-c3ccc4nc(N5CC[C@H](NC6(CF)CC6)C5)ccc4n3)cc2o1 (single isomer, unassigned) [Compound 378] | < 100 | B (B represents 100-1000 nM)
8 | Cc1nc2c(C)c(O)c(-c3ccc4nc(N5CC[C@@H](NC6(CF)CC6)C5)ccc4n3)cc2o1 (single isomer, unassigned) [Compound 379] | 100 to 1000 | B (B represents 100-1000 nM)
9 | Cn1cc2cc(-c3ncc4nc(N5CC[C@@H](N)C5)ccc4n3)c(O)c(F)c2n1 (single isomer, unassigned) [Compound 380] | 100 to 1000 | A (A represents <100 nM)
10 | Cn1cc2cc(-c3ccc4nc(N5CCC(NC6(CF)CC6)C5)ccc4n3)c(O)c(F)c2n1 (stereo in doubt) [Compound 353, 7-fluoro-5-{6-[(3R)-3-{[1-(fluoromethyl)cyclopropyl]amino}pyrrolidin-1-yl]-1,5-naphthyridin-2-yl}-2-methylindazol-6-ol] | < 100 | A (A represents <100 nM)
11 | Cn1cc2cc(-c3ccc4nc(N5CCC(NC6(CF)CC6)C5)ccc4n3)c(O)c(F)c2n1 (stereo in doubt) [Compound 357, 7-fluoro-5-{6-[(3S)-3-{[1-(fluoromethyl)cyclopropyl]amino}pyrrolidin-1-yl]-1,5-naphthyridin-2-yl}-2-methylindazol-6-ol] | < 100 | A (A represents <100 nM)
12 | Cn1cc2cc(-c3ccc4nc(N5CCC(N)C5)ccc4n3)c(O)c(F)c2n1 (stereo in doubt) [Compound 363, 5-{6-[(3R)-3-aminopyrrolidin-1-yl]-1,5-naphthyridin-2-yl}-7-fluoro-2-methylindazol-6-ol] | < 100 | A (A represents <100 nM)
13 | Cc1nc2c(F)c(O)c(-c3ccc4nc(N5CC[C@@H](N[C@H]6C[C@@H](F)C6)C5)ccc4n3)cc2o1 (stereo in doubt) [Compound 375] | < 100 | A (A represents <100 nM)
14 | Cc1nc2c(C)c(O)c(-c3ccc4nc(N5CC[C@@H](N[C@H]6C[C@@H](F)C6)C5)ccc4n3)cc2o1 (stereo in doubt) [Compound 376] | < 100 | B (B represents 100-1000 nM)
15 | Cc1nc2c(C)c(O)c(-c3ccc4nc(N5CC[C@H](N[C@H]6C[C@@H](F)C6)C5)ccc4n3)cc2o1 (stereo in doubt) [Compound 377] | < 100 | B (B represents 100-1000 nM)
16 | Cn1cc2cc(-c3ccc4nc(N5CC[C@@H](NC6(CF)CC6)C5)ccc4n3)c(O)cc2n1 [Compound 354, 5-{6-[(3R)-3-{[1-(fluoromethyl)cyclopropyl]amino}pyrrolidin-1-yl]-1,5-naphthyridin-2-yl}-2-methylindazol-6-ol] | < 100 | B (B represents 100-1000 nM)
17 | Cn1cc2cc(-c3ccc4nc(N5CC[C@H](NC6(CF)CC6)C5)ccc4n3)c(O)cc2n1 [Compound 355, 5-{6-[(3S)-3-{[1-(fluoromethyl)cyclopropyl]amino}pyrrolidin-1-yl]-1,5-naphthyridin-2-yl}-2-methylindazol-6-ol] | < 100 | B (B represents 100-1000 nM)
18 | Cc1c(O)c(-c2ccc3nc(N4CCC(NC5(CF)CC5)C4)ccc3n2)cc2cn(C)nc12 (stereo not shown) [Compound 360, 5-[6-(3-{[1-(fluoromethyl)cyclopropyl]amino}pyrrolidin-1-yl)-1,5-naphthyridin-2-yl]-2,7-dimethylindazol-6-ol] | < 100 | B (B represents 100-1000 nM)
19 | Cc1c(O)c(-c2cc(C(C)O)c3nc(N4CCNCC4)ccc3n2)cc2cn(C)nc12 (stereo not shown) [Compound 364, 5-[4-(1-hydroxyethyl)-6-(piperazin-1-yl)-1,5-naphthyridin-2-yl]-2,7-dimethylindazol-6-ol] | 1000 to 10000 | B (B represents 100-1000 nM)
20 | Cc1c(O)c(-c2ncc3nc(C4CCNCC4)ccc3n2)cc2cn(C)nc12 [Compound 370, 2,7-dimethyl-5-[6-(piperidin-4-yl)pyrido[3,2-d]pyrimidin-2-yl]indazol-6-ol] | 100 to 1000 | C (C represents 1000-9999 nM)
21 | Cc1nc2c(F)c(O)c(-c3ccc4nc(N5CC[C@H](N[C@H]6C[C@@H](F)C6)C5)ccc4n3)cc2o1 [Compound 374, 4-fluoro-2-methyl-6-[6-(3-{[(1r,3r)-3-fluorocyclobutyl]amino}pyrrolidin-1-yl)-1,5-naphthyridin-2-yl]-1,3-benzoxazol-5-ol] | < 100 | A (A represents <100 nM)

More lines, main results first:

Row | IC50 [2] [nM] | SMILES | Effect of Exemplary Compounds on Cell Viability, K562 [1]
22 | < 100 | C[C@H]1C[C@@H](c2ccc3nc(-c4cc5cn(C)nc5c(F)c4O)ccc3n2)CCN1 (single isomer, unassigned) [Compound 383] | A (A represents <100 nM)
23 | 1000 to 10000 | Cn1cc2cc(-c3ccc4nc(C5CCNC[C@H]5O)ccc4n3)c(O)cc2n1 (single isomer, unassigned) [Compound 386] | C (C represents 1000-9999 nM)
24 | < 100 | Cn1cc2cc(-c3ccc4nc(N5CC[C@@H](NC(C)(C)C)C5)ccc4n3)c(O)c(F)c2n1 (single isomer, unassigned) [Compound 391] | A (A represents <100 nM)
25 | < 100 | Cn1cc2cc(-c3ccc4nc(N5CC[C@H](NC(C)(C)C)C5)ccc4n3)c(O)c(F)c2n1 (single isomer, unassigned) [Compound 392] | A (A represents <100 nM)
26 | 1000 to 10000 | Cc1c(O)c(-c2ncc3nc([C@@H]4CCNC4)ccc3n2)cc2cn(C)nc12 (single isomer, unassigned) [Compound 398] | C (C represents 1000-9999 nM)
27 | < 100 | Cc1nc2c(C)c(O)c(-c3ccc4nc(N5CC[C@@H](NC6CC6)C5)ncc4n3)cc2o1 (single isomer, unassigned) [Compound 432] | B (B represents 100-1000 nM)
28 | < 100 | Cc1nc2cc(O)c(-c3ccc4nc(N5CC[C@@H](NC6CC6)C5)ncc4n3)cc2o1 (single isomer, unassigned) [Compound 434] | B (B represents 100-1000 nM)
29 | 100 to 1000 | Cc1nc2c(C)c(O)c(-c3ccc4cc(N5CC[C@@H](NC(C)(C)C)C5)ncc4n3)cc2o1 (single isomer, unassigned) [Compound 444] | B (B represents 100-1000 nM)
30 | 1000 to 10000 | Cc1nc2c(C)c(O)c(-c3ccc4cc(N5CC[C@H](NC(C)(C)C)C5)ncc4n3)cc2o1 (single isomer, unassigned) [Compound 445] | C (C represents 1000-9999 nM)
31 | < 100 | Cc1nc2cc(O)c(-c3ccc4nc(N5CC[C@@H](NC6(CF)CC6)C5)ccc4n3)cc2o1 (single isomer, unassigned) [Compound 488] | B (B represents 100-1000 nM)
32 | < 100 | Cc1nc2cc(O)c(-c3ccc4nc(N5CC[C@H](NC6(CF)CC6)C5)ccc4n3)cc2o1 (single isomer, unassigned) [Compound 489] | A (A represents <100 nM)
33 | < 100 | Cc1nc2c(F)c(O)c(-c3ccc4nc(N5CC[C@@H](NC6(CF)CC6)C5)ccc4n3)cc2o1 (single isomer, unassigned) [Compound 491] | A (A represents <100 nM)
34 | 100 to 1000 | Cc1nc2cc(O)c(-c3ccc4nc(N5CC[C@@H](N[C@H]6C[C@@H](F)C6)C5)ccc4n3)cc2o1 (stereo in doubt) [Compound 395] | B (B represents 100-1000 nM)
35 | < 100 | Cc1nc2cc(O)c(-c3ccc4nc(N5CC[C@H](N[C@H]6C[C@@H](F)C6)C5)ccc4n3)cc2o1 (stereo in doubt) [Compound 396] | B (B represents 100-1000 nM)
